According to US20260199193A1, “POWDERY SOLID COSMETIC” (Shiseido Company, Ltd., priority 2022, published 2026):
Peptide text beside a SMILES is read from it.

Test: log P value (octanol/water partition coefficient)
Assay type: physicochemical
Settings: octanol / aqueous buffer solution at pH 7
From the text: The log P value of the nonionic water-soluble agent may be 1.8 or less, 1.5 or less, 1.3 or less, or 1.0 or less, and may be −4.0 or more, −3.8 or more, −3.5 or more, −3.3 or more, −3.0 or more, −2.7 or more, or −2.5 or more. The “log P value” herein is a parameter that represents the tendencies of partitioning of a substance into water and octanol, and is a value commonly used as an index to determine the degree of hydrophilicity or hydrophobicity of a substance. The smaller the log P value, the more hydrophilic the substance is meant to be. The larger the log P value, the more hydrophobic the substance is meant to be. The log P value may also be referred to as “octanol/water partition coefficient” according to the method of its calculation. The octanol/water partition coefficient can be determined by adding an agent into a flask containing octanol and an aqueous buffer solution at pH 7, shaking the flask, and then performing calculation according to the following Equation A based on the agent concentration in each phase: […]

| Compound | logP |
| --- | --- |
| CC(O)CCO (stereo not drawn) [1,3-butylene glycol] | -0.4 |
| Nc1ncnc2c1ncn2[C@@H]1O[C@H](CO)[C@@H](O)[C@H]1O [adenosine] | -1.1 |
| OC[C@H]1O[C@@H](Oc2ccc(O)cc2)[C@H](O)[C@@H](O)[C@@H]1O [arbutin] | -0.7 |
| NCC(=O)NCC(=O)O [glycylglycine] (H-Gly-Gly-OH) | -2.3 |
| NC(=O)c1cccnc1 [niacinamide] | -0.4 |
| OC[C@H]1O[C@H](O[C@H]2O[C@H](CO)[C@@H](O)[C@H](O)[C@H]2O)[C@H](O)[C@@H](O)[C@@H]1O [trehalose] | -1.7 |
| C[N+](C)(C)CC(=O)[O-] [trimethylglycine] | 0.1 |
| OC[C@@H](O)[C@H](O)[C@@H](O)CO [xylitol] | -2.5 |

The next lines start with the values.

| logP | Compound |
| --- | --- |
| -1.4 | O=C1NCCN1CCO [1-(2-hydroxyethyl)-2-imidazolidinone] |
| -1.5 | CCOC1=C(O)[C@@H]([C@@H](O)CO)OC1=O [2-O-ethyl ascorbic acid] |
| -1.8 | OCC(O)CO [Glycerin] |
| 1.6 | O=C1O[C@H]([C@@H](O)CO)C(O)=C1O [L-ascorbic acid] |
| -0.8 | Cc1ncc(CO)c(CO)c1O [pyridoxine] |
| 1.4 | NCCS(=O)(=O)O [taurine] |
| -2 | NC[C@H]1CC[C@H](C(=O)O)CC1 [tranexamic acid, reference compound] |
